Laboratory results reported in patent US11964973B2 (priority 2019, dated 2024).
Where two headings read alike, the source gives them in different places.

How the values were obtained:
[1] = biological target: human DGKζ (Homo sapiens (Human), UniProt Q13574); assay: biochemical; type: biochemical
[2] = tested on: Human venous whole blood (IFN-γ); assay: Human whole blood IFN-γ assay; type: cell-based; details: Homo sapiens, 24 h, human whole blood, anti-CD3 plus anti-CD28, 24 hours; read-out: INFg Whole Blood Normalized Agonist EC50
Description: Assay 10: Human Whole Blood IFN-γ Assay
Human venous whole blood (22.5 μL per well), obtained from healthy donors, was pre-treated with compounds for one hour at 37° C. in a humidified 95% air/5% CO2 incubator. The blood was stimulated with 2.5 μL anti-human CD3 and anti-CD28 mAb at a final concentration of 1 μg/mL each for 24 hours at 37° C. IFN-γ in the supernatants was measured using AlphLISA kit (Cat #AL217).

[3] = biological target: DGKα (Homo sapiens (Human), UniProt P23743); assay: biochemical; type: biochemical
Chain of DGKα (P23743 whole entry, looked up): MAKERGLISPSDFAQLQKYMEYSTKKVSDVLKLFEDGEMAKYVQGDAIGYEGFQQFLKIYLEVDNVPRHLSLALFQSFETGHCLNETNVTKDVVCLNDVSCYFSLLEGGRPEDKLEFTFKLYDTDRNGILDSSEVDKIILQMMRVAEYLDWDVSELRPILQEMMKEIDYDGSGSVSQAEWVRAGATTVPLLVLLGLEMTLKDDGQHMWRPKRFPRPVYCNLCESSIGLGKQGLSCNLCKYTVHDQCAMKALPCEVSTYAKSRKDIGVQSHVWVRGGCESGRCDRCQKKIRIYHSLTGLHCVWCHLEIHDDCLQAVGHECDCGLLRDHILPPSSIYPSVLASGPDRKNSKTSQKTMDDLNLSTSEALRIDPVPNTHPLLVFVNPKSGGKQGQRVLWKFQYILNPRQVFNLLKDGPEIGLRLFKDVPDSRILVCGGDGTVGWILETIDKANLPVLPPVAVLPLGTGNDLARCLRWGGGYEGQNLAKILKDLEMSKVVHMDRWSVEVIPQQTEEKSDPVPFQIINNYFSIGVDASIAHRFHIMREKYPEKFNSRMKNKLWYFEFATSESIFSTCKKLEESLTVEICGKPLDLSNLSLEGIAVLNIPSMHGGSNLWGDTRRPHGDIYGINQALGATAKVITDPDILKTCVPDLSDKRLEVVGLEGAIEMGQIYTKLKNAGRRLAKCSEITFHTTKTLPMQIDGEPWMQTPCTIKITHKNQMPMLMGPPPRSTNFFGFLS

[4] = liposome (LIPGLO) assay, read-out: DGKζ LIPGLO IC50
[5] = liposome (LIPGLO) assay, read-out: DGKα LIPGLO IC50

Chain of human DGKζ (Q13574 whole entry, looked up): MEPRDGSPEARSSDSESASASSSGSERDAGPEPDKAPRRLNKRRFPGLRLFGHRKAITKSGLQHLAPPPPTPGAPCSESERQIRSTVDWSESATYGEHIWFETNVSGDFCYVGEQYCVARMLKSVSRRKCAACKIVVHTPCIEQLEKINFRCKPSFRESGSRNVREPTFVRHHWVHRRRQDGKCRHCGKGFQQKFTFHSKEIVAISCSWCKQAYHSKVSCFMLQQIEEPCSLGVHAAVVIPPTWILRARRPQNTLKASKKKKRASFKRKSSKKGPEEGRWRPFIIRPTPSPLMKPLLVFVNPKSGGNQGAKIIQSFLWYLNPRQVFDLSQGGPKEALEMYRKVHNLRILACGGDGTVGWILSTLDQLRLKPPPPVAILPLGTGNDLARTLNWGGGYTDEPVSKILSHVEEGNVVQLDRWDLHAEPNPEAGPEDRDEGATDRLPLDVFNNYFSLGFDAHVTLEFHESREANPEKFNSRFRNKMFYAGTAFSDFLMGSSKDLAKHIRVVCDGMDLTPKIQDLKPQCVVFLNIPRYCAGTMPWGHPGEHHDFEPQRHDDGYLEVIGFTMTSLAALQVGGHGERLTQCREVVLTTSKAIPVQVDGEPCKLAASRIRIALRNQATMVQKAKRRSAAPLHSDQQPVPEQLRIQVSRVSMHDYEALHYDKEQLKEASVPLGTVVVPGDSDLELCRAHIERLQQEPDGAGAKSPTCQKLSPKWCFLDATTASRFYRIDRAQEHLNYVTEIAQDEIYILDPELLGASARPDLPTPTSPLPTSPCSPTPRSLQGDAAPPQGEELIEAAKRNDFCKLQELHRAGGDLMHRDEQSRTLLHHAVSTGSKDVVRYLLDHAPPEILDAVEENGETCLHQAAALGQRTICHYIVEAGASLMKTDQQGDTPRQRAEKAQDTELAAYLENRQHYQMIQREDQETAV

| Structure (SMILES) | IC50 [1, 4] [µM] | EC50 [2] [µM] | IC50 [3, 5] [µM] | IC50 ([1]; read-out: DGKζ LIPGLO IC50) [µM] | IC50 ([3]; read-out: DGKα LIPGLO IC50) [µM] | IC50 ([1]; DGKζ LIPGLO IC50) [µM] | IC50 ([3]; DGKα LIPGLO IC50) [µM] |
| --- | --- | --- | --- | --- | --- | --- | --- |
| Cn1c(=O)cc(N2CCC(Oc3ccc(Cc4ccccc4)cc3)CC2)c2nc(C#N)ccc21 [Example 55, 8-(4-(4-benzylphenoxy)piperidin-1-yl)-5-methyl-6-oxo-5,6-dihydro-1,5-naphthyridine-2-carbonitrile] | 3.8 | 3.7 | 0.95 | – | – | – | – |
| CCCCc1ccc(OC2CCN(c3cc(=O)n(C)c4ccc(C#N)nc34)CC2)cc1 [Example 56, 8-(4-(4-butylphenoxy)piperidin-1-yl)-5-methyl-6-oxo-5,6-dihydro-1,5-naphthyridine-2-carbonitrile] | 13 | 3.8 | 0.84 | – | – | – | – |
| CCCc1ccc(OC2CCN(c3cc(=O)n(C)c4ccc(C#N)nc34)CC2)cc1 [Example 57, 5-methyl-6-oxo-8-(4-(4-propylphenoxy)piperidin-1-yl)-5,6-dihydro-1,5-naphthyridine-2-carbonitrile] | 6.1 | 4.3 | 0.73 | – | – | – | – |
| Cn1c(=O)cc(N2CCC(Oc3ccc(C4CCCC4)cc3)CC2)c2nc(C#N)ccc21 [Example 58, 8-(4-(4-cyclopentylphenoxy)piperidin-1-yl)-5-methyl-6-oxo-5,6-dihydro-1,5-naphthyridine-2-carbonitrile] | 2.9 | 5.9 | 0.34 | – | – | – | – |
| Cn1c(=O)cc(N2CCC(Oc3ccc(C4CC4)cc3)CC2)c2nc(C#N)ccc21 [Example 59, 8-(4-(4-cyclopropylphenoxy)piperidin-1-yl)-5-methyl-6-oxo-5,6-dihydro-1,5-naphthyridine-2-carbonitrile] | 3.7 | 6.4 | 1 | – | – | – | – |
| Cc1cc(OC2CCN(c3cc(=O)n(C)c4ccc(C#N)nc34)CC2)ccc1C(C)C [Example 60, 8-(4-(4-isopropyl-3-methylphenoxy)piperidin-1-yl)-5-methyl-6-oxo-5,6-dihydro-1,5-naphthyridine-2-carbonitrile] | 5.5 | 7.9 | 0.24 | – | – | – | – |
| Cn1c(=O)cc(N2CCC(Oc3ccc4c(c3)CCCC4)CC2)c2nc(C#N)ccc21 [Example 61, 5-methyl-6-oxo-8-(4-((5,6,7,8-tetrahydronaphthalen-2-yl)oxy)piperidin-1-yl)-5,6-dihydro-1,5-naphthyridine-2-carbonitrile] | 4.7 | 8.5 | 0.73 | – | – | – | – |
| CCCCCc1ccc(OC2CCN(c3cc(=O)n(C)c4ccc(C#N)nc34)CC2)cc1 [Example 62, 5-methyl-6-oxo-8-(4-(4-pentylphenoxy)piperidin-1-yl)-5,6-dihydro-1,5-naphthyridine-2-carbonitrile] | 5.2 | 20 | 1.5 | – | – | – | – |
| Cn1c(=O)cc(N2CCC(Oc3ccc(OC(C)(C)C)cc3)CC2)c2nc(C#N)ccc21 [Example 65, 8-(4-(4-(tert-butoxy)phenoxy)piperidin-1-yl)-5-methyl-6-oxo-5,6-dihydro-1,5-naphthyridine-2-carbonitrile] | 3.3 | 6.8 | 0.56 | – | – | – | – |
| Cn1c(=O)cc(N2CCC(Oc3ccc(Cl)cn3)CC2)c2nc(C#N)ccc21 [Example 67, 8-(4-((5-chloropyridin-2-yl)oxy)piperidin-1-yl)-5-methyl-6-oxo-5,6-dihydro-1,5-naphthyridine-2-carbonitrile] | 7.1 | 2.7 | 1.6 | – | – | – | – |
| Cn1c(=O)cc(N2CCC(Oc3ccc(C(C)(C)C)nn3)CC2)c2nc(C#N)ccc21 [Example 68, 8-(4-((6-(tert-butyl)pyridazin-3-yl)oxy)piperidin-1-yl)-5-methyl-6-oxo-5,6-dihydro-1,5-naphthyridine-2-carbonitrile] | 1.7 | 9.6 | 1.7 | – | – | – | – |
| Cn1c(=O)cc(N2CCC(Oc3cnc4ccccc4n3)CC2)c2nc(C#N)ccc21 [Example 69, 5-methyl-6-oxo-8-(4-(quinoxalin-2-yloxy)piperidin-1-yl)-5,6-dihydro-1,5-naphthyridine-2-carbonitrile] | 1.4 | 17 | 5.7 | – | – | – | – |
| Cc1cc(OC2CCN(c3cc(=O)n(C)c4ccc(C#N)nc34)CC2)nc(C)n1 [Example 70, 8-(4-((2,6-dimethylpyrimidin-4-yl)oxy)piperidin-1-yl)-5-methyl-6-oxo-5,6-dihydro-1,5-naphthyridine-2-carbonitrile] | 11 | 20 | 12 | – | – | – | – |
| Cn1c(=O)cc(N2CCC(Oc3ncnc4ccccc34)CC2)c2nc(C#N)ccc21 [Example 71, 5-methyl-6-oxo-8-(4-(quinazolin-4-yloxy)piperidin-1-yl)-5,6-dihydro-1,5-naphthyridine-2-carbonitrile] | 3 | 20 | 2.3 | – | – | – | – |
| COc1cc(OC2CCN(c3cc(=O)n(C)c4ccc(C#N)nc34)CC2)nc2cc(Cl)ccc12 [Example 73, 8-(4-((7-chloro-4-methoxyquinolin-2-yl)oxy)piperidin-1-yl)-5-methyl-6-oxo-5,6-dihydro-1,5-naphthyridine-2-carbonitrile] | 8.3 | 20 | 2.2 | – | – | – | – |
| Cn1c(=O)cc(N2CCC(Oc3nccc4cccnc34)CC2)c2nc(C#N)ccc21 [Example 74, 8-(4-((1,7-naphthyridin-8-yl)oxy)piperidin-1-yl)-5-methyl-6-oxo-5,6-dihydro-1,5-naphthyridine-2-carbonitrile] | 3.3 | 20 | 2.8 | – | – | – | – |
| Cn1c(=O)cc(N2CCC(Oc3nncc4ccccc34)CC2)c2nc(C#N)ccc21 [Example 75, 5-methyl-6-oxo-8-(4-(phthalazin-1-yloxy)piperidin-1-yl)-5,6-dihydro-1,5-naphthyridine-2-carbonitrile] | 18 | 20 | 27 | – | – | – | – |
| CCC(C)(C)c1ccc(O[C@@H]2CCN(c3cc(=O)n(C)c4ccc(C#N)nc34)C[C@H]2C)cc1 [Example 82, 5-methyl-8-((3R,4R)-3-methyl-4-(4-(tert-pentyl)phenoxy)piperidin-1-yl)-6-oxo-5,6-dihydro-1,5-naphthyridine-2-carbonitrile] | – | 0.65 | – | 3.9 | 0.03 | – | – |
| C[C@@H]1CN(c2cc(=O)n(C)c3ccc(C#N)nc23)CC[C@H]1Oc1cccc(C2CC2)c1 [Example 91, 8-((3R,4R)-4-(3-cyclopropylphenoxy)-3-methylpiperidin-1-yl)-5-methyl-6-oxo-5,6-dihydro-1,5-naphthyridine-2-carbonitrile] | 14 | 4.4 | 0.065 | – | – | – | – |
| C[C@@H]1CN(c2cc(=O)n(C)c3ccc(C#N)nc23)CC[C@H]1Oc1ccc(C2CCCC2)cc1 [Example 100, 8-((3R,4R)-4-(4-cyclopentylphenoxy)-3-methylpiperidin-1-yl)-5-methyl-6-oxo-5,6-dihydro-1,5-naphthyridine-2-carbonitrile] | 28 | 2.7 | 0.11 | – | – | – | – |
| Cc1cccc(O[C@@H]2CCN(c3cc(=O)n(C)c4ccc(C#N)nc34)C[C@H]2C)c1 [Example 107, 5-methyl-8-((3R,4R)-3-methyl-4-(m-tolyloxy)piperidin-1-yl)-6-oxo-5,6-dihydro-1,5-naphthyridine-2-carbonitrile] | – | 13 | – | – | – | 24 | 0.13 |
| C[C@@H]1CN(c2cc(=O)n(C)c3ccc(C#N)nc23)CC[C@H]1Oc1ccc(C(F)(F)F)cc1F [Example 112, 8-((3R,4R)-4-(2-fluoro-4-(trifluoromethyl)phenoxy)-3-methylpiperidin-1-yl)-5-methyl-6-oxo-5,6-dihydro-1,5-naphthyridine-2-carbonitrile] | 7.5 | 4.1 | 0.34 | – | – | – | – |
| C[C@@H]1CN(c2cc(=O)n(C)c3ccc(C#N)nc23)CC[C@H]1Oc1ccc(F)cc1C(F)(F)F [Example 116, 8-((3R,4R)-4-(4-fluoro-2-(trifluoromethyl)phenoxy)-3-methylpiperidin-1-yl)-5-methyl-6-oxo-5,6-dihydro-1,5-naphthyridine-2-carbonitrile] | 13 | 4.7 | 0.45 | – | – | – | – |
| Cc1ccc(O[C@@H]2CCN(c3cc(=O)n(C)c4ccc(C#N)nc34)C[C@H]2C)cc1 [Example 119, 5-methyl-8-((3R,4R)-3-methyl-4-(p-tolyloxy)piperidin-1-yl)-6-oxo-5,6-dihydro-1,5-naphthyridine-2-carbonitrile] | 20 | 6.6 | 0.24 | – | – | – | – |
| CC(C)c1cccc(O[C@@H]2CCN(c3cc(=O)n(C)c4ccc(C#N)nc34)C[C@H]2C)c1 [Example 122, 8-((3R,4R)-4-(3-isopropylphenoxy)-3-methylpiperidin-1-yl)-5-methyl-6-oxo-5,6-dihydro-1,5-naphthyridine-2-carbonitrile] | 28 | 5.8 | 0.017 | – | – | – | – |
| Cc1cccc(O[C@@H]2CCN(c3c(C#N)c(=O)n(C)c4ccc(C#N)nc34)C[C@H]2C)c1 [Example 136, 5-methyl-8-((3R,4R)-3-methyl-4-(m-tolyloxy)piperidin-1-yl)-6-oxo-5,6-dihydro-1,5-naphthyridine-2,7-dicarbonitrile] | ≥ 250 | 20 | – | – | – | – | 0.81 |
| CC[C@@H]1CN(c2cc(=O)n(C)c3ccc(C#N)nc23)CC[C@H]1Oc1ccc(OC(C)(C)C)cc1 [Example 158, 8-((3R,4R)-4-(4-(tert-butoxy)phenoxy)-3-ethylpiperidin-1-yl)-5-methyl-6-oxo-5,6-dihydro-1,5-naphthyridine-2-carbonitrile] | – | 2 | – | 1.9 | 0.36 | – | – |
